Measurements: patent US6180388A, “Enzymes and micro organisms with amidase activity which hydrolyze polyamides” (Rhone-Poulenc Fibres et Polymeres S.A., priority 1995, dated 2001)

Columns and labels:
[1] = test system: Comamonas acidovorans N 12; assay: Enzymatic hydrolysis of PA 6.6 oligomers, activity of the wild-type microorganism; type: cell-based; conditions: 28° C., 10.5 mmol/l phosphate buffer pH 7.5
Text: 2.2 ENZYMATIC HYDROLYSIS--MEASUREMENT OF ACTIVITY OF THE WILD-TYPE MICROORGANISM: […]

[2] = polyamide 66 labeled with carbon 14; cited from earlier work

Q: Which “hydrolysis ABAB → BAB + A” value ([1]; substrate 1.4 g/l) does the source give for `NCCCCCCNC(=O)CCCCC(=O)NCCCCCCNC(=O)CCCCC(=O)O` [ABAB] here?
A: Its value is 410 mg of BAB/h.g of dry cells.

Q: For `O=C(O)CCCCC(=O)NCCCCCCNC(=O)CCCCC(=O)O` [ABA], which “hydrolysis ABA → AB + A” value ([1]; substrate 2.6 g/l) is on record?
A: The value was 215 mg of AB/h.g of dry cells.

Q: For `NCCCCCCNC(=O)CCCCC(=O)O` [AB], which “hydrolysis AB → A + B” value ([1]; substrate 1.4 g/l) is on record?
A: Its value is 280 mg of A/h.g of dry cells.

Q: With trypsin [reference compound] as the molecule, how does the “degradation of polyamide 66” value [2] read?
A: Its value is “degrade polyamide 66 slightly”.

B1: papain: known enzyme of the prior art (protein, UniProt P00784 134-345, looked up)
Papain: IPEYVDWRQKGAVTPVKNQGSCGSCWAFSAVVTIEGIIKIRTGNLNEYSEQELLDCDRRSYGCNGGYPWSALQLVAQYGIHYRNTYPYEGVQRYCRSREKGPYAAKTDGVRQVQPYNEGALLYSIANQPVSVVLEAAGKDFQLYRGGIFVGPCGNKVDHAVAAVGYGPNYILIKNSWGTGWGENGYIRIKRGTGNSYGVCGLYTSSFYPVKN
Q: For B1, which “degradation of polyamide 66” value [2] is on record?
A: Its value is “degrade polyamide 66 slightly”.
